From patent US20260102397A1, “PHARMACEUTICAL COMPOSITION FOR TREATING LEUKEMIA COMPRISING FLT3 INHIBITOR” (HANMI PHARM. CO., LTD., priority 2020, published 2026)

Columns and labels:
SYK = molecular target: T1, SYK (Homo sapiens, UniProt P43405); test: Kinase inhibition test, Z'-LYTE; format: biochemical; conditions: read-out: 50% activity inhibition value (IC50), SYK
T1 construct: purchased Thermo Fisher Scientific
Experimental: Activity measurement was conducted using LanthaScreen test method (wild type and mutation type FLT3) or Z′-LYTE test method (SYK) developed by Thermo Fisher Scientific. LanthaScreen test method is a method of measuring protein activity by measuring fluorescence resonance energy transfer (FRET) signal under the existence of europium-conjugated antibody on the basis of the binding of Alexa Fluor 647-labelled, ATP-competitive kinase inhibitor (kinase tracer-236) to kinase. Z′-LYTE test method is a method using an enzyme which can cut dephosphorylated substrate, and this method measures the activity of kinase protein by measuring two fluorescent FRET signals attached to each end of peptide substrate. The two experiments were all conducted in 384 well plates under the conditions of 50 mM HEPES pH 7.5, 0.01% BRIJ-35, 10 mM MgCl2, 1 mM EGTA, and 1% DMSO.

[1] = test system: MOLM-14 FLT3-ITD/F691L cell strain; test: Mouse model hypodermically implanted with MOLM-14 FLT3-ITD/F691L cell strain; format: in vivo; conditions: nude mice, MOLM-14 FLT3-ITD/F691L subcutaneous, 30 mg/kg/day oral once daily
Experimental: MOLM-14 FLT3-ITD/F691L cell strain was subcutaneously injected into a nude mouse at 3×10^^6 cell/0.15 mL/mouse and the mouse was left to grow.
The control group was administered for 13 days and the drug administration groups were administered for 18 days with each pertinent drug.
The tumor volume (mm^3) of the surviving mice in each group was plotted on the y-axis, whereas the number of days of medication was plotted on the x-axis. In order to evaluate the effects of the administration of drugs, the results of complete response (CR) in which tumor had completely disappeared were checked. […] (*p<0.05, **p<0.01, ***p<0.001, and ****p<0.0001 Sidk's test was conducted after two-way analysis of variance)

SMILES: Cc1ccc2c(-c3nc(Nc4cc(CN5C[C@@H](C)N[C@@H](C)C5)cc(C5CC5)c4)ncc3Cl)c[nH]c2c1 [Compound A, 5-chloro-N-(3-cyclopropyl-5-(((3R,5S)-3,5-dimethylpiperazine-1-yl)methyl)phenyl)-4-(6-methyl-1H-indol-3-yl)pyrimidine-2-amin]
- IC50 (SYK): 2.9 nM
- complete response (CR, tumor completely disappeared), day of administration [1]: 12 days
- volume of tumor compared with Gilteritinib administration group ([1]; 18 days, FIG. 1): reduced more significantly
